The values that follow come from patent publication US9808455B2.

This experiment relates to extra cellular levels of acetylcholine in the prefrontal cortex. Nature of the experiment: extracellular acetylcholine levels in the prefrontal cortex, preclinical studies in rats. It is filed as in vivo. An excerpt: At a mechanistic level, pharmacodynamic interactions between an acetylcholinesterase inhibitor and a 5HT6 receptor antagonist are feasible. […] Although the underlying mechanism is still unknown, it is likely due to increases in the release of acetylcholine from cholinergic neurons, On the other hand, donepezil increases the extracellular levels of acetylcholine by inhibiting the acetylcholinesterase to reduce the degradation of acetylcholine.

Take `O=S(=O)(c1ccccc1)c1cnc2c(N3CCNCC3)cccc2c1`: the “extra cellular levels of acetylcholine in the prefrontal cortex” value was “small increase”.
